Assays:
Assay type in all cases: cell-based
[1] = molecular target: T1, Alpha 2B adrenergic receptor (Homo sapiens, UniProt P18089); experiment: RSAT (Receptor Selection and Amplification Technology) assay, alpha 2B; details: for Intrinsic Activity EC50 Alpha 2B / EC50: cells expressing alpha 2B receptor alone, receptor-mediated growth response, NA = not active; for Intrinsic Activity (efficacy) Alpha 2B: relative efficacy compared to a standard full agonist; for EC50: read-out: Intrinsic Activity EC50 Alpha 2B
T1 construct: expressed in transfected cells
T1 sequence (P18089 1-450): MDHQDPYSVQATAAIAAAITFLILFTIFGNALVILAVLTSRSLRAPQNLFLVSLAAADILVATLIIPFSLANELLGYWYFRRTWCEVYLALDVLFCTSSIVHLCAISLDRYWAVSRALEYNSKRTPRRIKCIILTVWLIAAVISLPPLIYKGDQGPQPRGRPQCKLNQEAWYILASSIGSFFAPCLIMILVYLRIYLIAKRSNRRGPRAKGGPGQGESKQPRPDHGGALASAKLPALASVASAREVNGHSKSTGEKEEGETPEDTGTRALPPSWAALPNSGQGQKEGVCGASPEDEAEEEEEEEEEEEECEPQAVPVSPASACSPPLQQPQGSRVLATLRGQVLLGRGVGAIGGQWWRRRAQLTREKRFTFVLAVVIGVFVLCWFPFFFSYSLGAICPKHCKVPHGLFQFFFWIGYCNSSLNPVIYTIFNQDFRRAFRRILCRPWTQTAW
Experimental: (§1) Cells expressing each of the alpha 2 adrenergic receptors alone were incubated with the various compounds and a receptor-mediated growth response was measured. The compound's activity is expressed as its relative efficacy compared to a standard full agonist (see Table 3).

[2] = molecular target: T2, Alpha 2C adrenergic receptor (Homo sapiens, UniProt P18825); experiment: RSAT (Receptor Selection and Amplification Technology) assay, alpha 2C; details: for EC50: read-out: Intrinsic Activity EC50 Alpha 2C; for Intrinsic Activity (efficacy) Alpha 2C: relative efficacy compared to a standard full agonist
T2 construct: expressed in transfected cells
T2 sequence (P18825 1-462): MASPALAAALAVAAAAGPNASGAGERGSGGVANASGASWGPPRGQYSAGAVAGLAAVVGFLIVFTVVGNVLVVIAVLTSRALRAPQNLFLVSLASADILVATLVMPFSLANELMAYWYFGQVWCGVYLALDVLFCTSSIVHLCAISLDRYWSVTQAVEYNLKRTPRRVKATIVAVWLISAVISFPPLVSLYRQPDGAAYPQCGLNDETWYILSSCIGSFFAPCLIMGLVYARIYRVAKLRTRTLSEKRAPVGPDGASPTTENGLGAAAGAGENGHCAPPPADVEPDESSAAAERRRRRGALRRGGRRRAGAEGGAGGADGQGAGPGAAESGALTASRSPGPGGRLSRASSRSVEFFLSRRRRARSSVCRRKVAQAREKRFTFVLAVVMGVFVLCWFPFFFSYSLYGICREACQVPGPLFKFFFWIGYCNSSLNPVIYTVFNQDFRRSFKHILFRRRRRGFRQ
Experimental: as §1

[3] = molecular target: T3, Alpha 2A adrenergic receptor (Homo sapiens, UniProt P08913); experiment: RSAT (Receptor Selection and Amplification Technology) assay, alpha 2A; details: for EC50: cells expressing alpha 2A receptor alone, receptor-mediated growth response, NA = not active, read-out: Intrinsic Activity EC50 Alpha 2A; for Intrinsic Activity (efficacy) Alpha 2A: relative efficacy compared to a standard full agonist
T3 construct: expressed in transfected cells
T3 sequence (P08913 1-465): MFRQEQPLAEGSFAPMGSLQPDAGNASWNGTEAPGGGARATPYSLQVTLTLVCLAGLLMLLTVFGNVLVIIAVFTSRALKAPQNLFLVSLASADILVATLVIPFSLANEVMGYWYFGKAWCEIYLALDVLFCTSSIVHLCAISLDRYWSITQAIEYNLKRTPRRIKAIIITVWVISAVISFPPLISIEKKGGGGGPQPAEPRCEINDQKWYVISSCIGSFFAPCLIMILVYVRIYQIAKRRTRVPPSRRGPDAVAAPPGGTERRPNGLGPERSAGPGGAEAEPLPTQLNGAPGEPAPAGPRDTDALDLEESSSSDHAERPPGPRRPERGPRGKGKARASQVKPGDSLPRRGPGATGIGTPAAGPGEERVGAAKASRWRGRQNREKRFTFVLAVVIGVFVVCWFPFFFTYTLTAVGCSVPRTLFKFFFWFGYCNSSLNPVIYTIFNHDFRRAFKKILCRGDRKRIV
Experimental: as §1

[4] = cells expressing alpha 2C receptor alone, receptor-mediated growth response, NA = not active

SMILES | Intrinsic Activity EC50 Alpha 2B [1] | Intrinsic Activity (efficacy) Alpha 2B [1] | EC50 [2, 4] [nM] | Intrinsic Activity (efficacy) Alpha 2C [2] | EC50 [3] [nM] | Intrinsic Activity (efficacy) Alpha 2A [3] | EC50 [1] [nM] | Intrinsic Activity EC50 Alpha 2C [2, 4]
c1cc2cc(N=C3NCCN3)cnc2[nH]1 [Compound 7, N-(imidazolidin-2-ylidene)-1H-pyrrolo[2,3-b]pyridin-5-amine] | potent | (0.87) | 7.3 | 0.94 | 16.2 | 0.89 |  | 
c1nc2cc(N=C3NCCN3)cnc2[nH]1 [Compound 8, N-(imidazolidin-2-ylidene)-3H-imidazo[4,5-b]pyridin-6-amine] |  | 0.61 | 448 | 0.87 |  |  | 722 | 
Clc1c(N=C2NCCN2)cnc2[nH]ccc12 [Compound 2, 4-Chloro-N-(imidazolidin-2-ylidene)-1H-pyrrolo[2,3-b]pyridin-5-amine] |  | 0.72 | 10.5 | 0.91 | 25.2 | 0.73 | 5.36 | 
c1nc2cc(N=C3NCCN3)cnc2s1 [Compound 6, N-(4,5-dihydro-1H-imidazol-2-yl)thiazolo[5,4-b]pyridin-6-amine] |  | 0.46 | 10 | 0.97 |  |  | 267 | 
c1cc2cc(N=C3NCCN3)cnc2o1 [Compound 5, N-(imidazolidin-2-ylidene)furo[2,3-b]pyridin-5-amine] |  |  | 2110 | 0.73 |  |  |  | 
Cc1c(N=C2NCCN2)cnc2[nH]ccc12 [Compound 1, N-(4,5-dihydro-1H-imidazol-2-yl)-4-methyl-1H-pyrrolo[2,3-b]pyridin-5-amine] | potent | (0.82) |  | (0.94) | 8.2 | 0.85 |  | potent
Brc1c(N=C2NCCN2)cnc2[nH]ccc12 [Compound 3, 4-Bromo-N-(imidazolidin-2-ylidene)-1H-pyrrolo[2,3-b]pyridin-5-amine] |  | 0.17 | 31.2 | 0.84 | 62.2 | 0.16 | 32.6 | 
Cn1ccc2cc(N=C3NCCN3)cnc21 [Compound 4, N-(imidazolidin-2-ylidene)-1-methyl-1H-pyrrolo[2,3-b]pyridin-5-amine] |  | 0.57 | 31 | 0.93 |  |  | 114 | 
